Results from patent US20170246227A1, “COMBINATION COMPRISING SPIRULINA AND PALMITOYLETHANOLAMIDE AND/OR SALTS OR PHARMACEUTICALLY ACCEPTABLE DERIVATIVES THEREOF AND THEIR FORMULATIONS, FOR USE IN THE PREVENTION AND/OR IN THE TREATMENT OF HYPERACTIVATED TISSUE CONDITIONS” (priority 2014, published 2017).

Key:
Type in all cases: in vivo, human
[1] = test system: patients suffering from tinnitus; assay: Clinical study of spirulina, PEA and their combination in the treatment of tinnitus; conditions: 2 patients per group, oral tablets 2x2/day for 5 days then 1x2/day for 10 days; PEA 350 mg and/or spirulina 650 mg per tablet; combination 65% spirulina, 35% PEA
Protocol: A clinical study was performed to test the synergistic effect of the combination of spirulina (used as dry extract) and palmitoylethanolamide (PEA) in the treatment of tinnitus.
In the study, six patients were treated, comprising both men and women, with a mean age of 49.6 years (person, person, person, person, person, […] women), who had been suffering from tinnitus for at least one year. […]
The improvements regarding the tinnitus were declared by patients, while the improvement in hearing was measured via an audiometric test, carried out before and after administration of the combination in the invention. […]

[2] = test system: patients suffering from age-related macular degeneration; assay: Clinical study in senile macular degeneration, Amsler test before and after treatment; conditions: 1 patient each, tablet 4x/day for 10 days then 2x/day for 30 days; PEA 450 mg and/or spirulina 550 mg per tablet; combination 55% spirulina, 45% PEA
Protocol: A clinical study was performed to test the synergistic effect of the combination of spirulina (used as dry extract) and PEA in the treatment of senile macular degeneration.
In the study, three patients were treated, comprising both men and women, who were suffering from age-related macular degeneration with the presence of macular drusen, i.e. localised deposits between the retinal pigment epithelium (RPE) and the Bruch membrane, together with geographic atrophy, characterised by RPE cell death and atrophy of the overlying photoreceptors.
All the patients underwent an assessment with the Amsler test, prior to administration of the combination of spirulina and PEA. All three patients presented macular degeneration with distortion (metamorphopsia) or line breaks with an average degree of macular degeneration. […]

[3] = test system: patients with peripheral neuropathy of diabetic origin; assay: Clinical study in diabetic peripheral neuropathy: nerve conduction by neurological tuning fork, biothesiometer and Achilles reflex; conditions: 1 patient each, combination 35% spirulina, 65% PEA
Protocol: A clinical study was performed to test the synergistic effect of the combination of spirulina (used as dry extract) and PEA in the treatment of peripheral neuropathy in diabetics.
In the study, three patients were treated, comprising both men and women who suffered from peripheral neuropathy of diabetic origin. All the patients presented the classic symptoms of peripheral neuropathy, i.e. the classic symptoms consisting of paraesthesias, the sensation of ‘walking on cotton wool’, insensitivity to heat and/or cold, etc., and all the patients were undergoing specific treatments to control glycaemic values, in particular oral hypoglycaemic agents. The patients' glycaemia was tested, both at the beginning and the end of the study, to see if taking the product influenced glycaemic control in any way. All the patients had mean fasting glycaemia values of approximately 140 to 165 mg/dl. […]

[4] = test system: patients with praecordial pain of cardiac origin (angina pectoris); assay: Clinical study in angina pectoris (chest pain), stress ECG; conditions: 1 patient each, PEA 300 mg and/or spirulina 700 mg per tablet, combination 70% spirulina, 30% PEA
Protocol: A clinical study was performed to test the synergistic effect of the combination of spirulina (used as dry extract) and PEA in the treatment of angina pectoris (chest pain).
In the study, three patients were treated, comprising both men and women who suffered from praecordial pain of cardiac origin. Upon undergoing a stress ECG, all the patients presented anginal pain during the stress and all were undergoing specific treatments (antihypertensives, beta blockers), which—nevertheless—were unable to fully control the aforesaid symptoms. […]

[5] = Fasting glycaemia at beginning and end of the diabetic peripheral neuropathy study; conditions: 1 patient each, 35 days, on oral hypoglycaemic agents; combination 35% spirulina, 65% PEA
Protocol: In the study, three patients were treated, comprising both men and women who suffered from peripheral neuropathy of diabetic origin. All the patients presented the classic symptoms of peripheral neuropathy, i.e. the classic symptoms consisting of paraesthesias, the sensation of ‘walking on cotton wool’, insensitivity to heat and/or cold, etc., and all the patients were undergoing specific treatments to control glycaemic values, in particular oral hypoglycaemic agents. The patients' glycaemia was tested, both at the beginning and the end of the study, to see if taking the product influenced glycaemic control in any way. […]

[6] = test system: diabetic patients with altered renal functions; assay: Clinical study in altered renal functions in diabetics: creatinine value at beginning and end
Protocol: A clinical study was performed to test the synergistic effect of the combination of spirulina (used as dry extract) and PEA in the treatment of altered renal functions, preferably in diabetics.
In the study, three patients were treated, comprising both men and women who suffered from diabetes. All patients presented altered renal functions, evidenced by the creatinine value, i.e. a creatinine value of over 4 mg/dl (normal values range from 0.7 to 1.3 mg/dl). All the patients were undergoing specific treatments (conventional drugs, such as Decadurabolin, etc.) which, nevertheless, were unable to control the renal dysfunction. The patients' creatinine values were tested, both at the beginning and the end of the clinical study assessment.
In accordance with the present invention, the patients were treated according to the following schema: • the first patient was treated with a tablet comprising 650 mg of PEA, administered four times a day, for a daily total of 2,600 mg of PEA, for a duration of 5 days; next, the same patient was treated with one tablet, comprising 650 mg of PEA, administered twice a day, for a daily total of 1,300 mg of PEA, for a duration of 30 days; • the second patient was treated with a tablet comprising 350 mg of spirulina, administered four times a day, for a daily total of 1,400 mg of spirulina, for a duration of 5 days; next, the same patient was treated with one tablet, comprising 350 mg of spirulina, administered twice a day, for a daily total of 700 mg of spirulina, for a duration of 30 days; • next, the third patient was treated with one tablet, comprising 350 mg of spirulina and 650 mg of PEA, administered four times a day, for a daily total of 1,400 mg of spirulina combined with 2,600 mg of PEA, for a duration of 5 days; next, the same patient was treated with one tablet, comprising 350 mg of spirulina and 650 mg of PEA, administered twice a day, for a daily total of 700 mg of spirulina combined with 1,300 mg of PEA, for a duration of 30 days.

CCCCCCCCCCCCCCCC(=O)NCCO [PEA, Palmitoylethanolamide]
change in tinnitus perceived (declared by patients) [1]: neither the two patients treated with PEA, nor the two patients treated with spirulina showed variations in the tinnitus
Amsler test result after treatment [2]: slight improvement in the Amsler test result
nerve conduction assessed with tuning fork and biothesiometer ([3]; 35 days): slight response to the biothesiometry test
neuropathic symptoms / condition ([3]; tablet 4x/day for 5 days then 2x/day for 30 days, PEA 650 mg and/or spirulina 350 mg per tablet): slight improvement in the neuropathic symptoms
praecordial pain of cardiac origin when stress was increased during the stress ECG ([4]; 45 days): presented praecordial pain of cardiac origin
change in condition / capacity to endure the stress ECG versus before administration ([4]; tablet 4x/day for 15 days then 2x/day for 30 days, added to treatments already underway): no significant changes in condition
glycaemic profile [5]: without any influence on the glycaemic profile
renal functions ([6]; 1 diabetic patient each, tablet 4x/day for 5 days then 2x/day for 30 days, PEA 650 mg and/or spirulina 350 mg per tablet, combination 35% spirulina, 65% PEA): no improvement in renal functions
creatinine value at the end of the treatment ([6]; after 35 days, normal values 0.7 to 1.3 mg/dl, combination 35% spirulina, 65% PEA): 4.4 mg/dL
creatinine value at the beginning of the treatment ([6]; baseline of the treated patient, normal values 0.7 to 1.3 mg/dl): 4.3 mg/dL
